Measured values taken from US7141570B2, “N-aryl-2-oxazolidinone-5-carboxamides and their derivatives” (Pharmacia & Upjohn Company, priority 2002, dated 2006).

In the case of `CCC(=S)NC[C@H]1CN(c2ccc(N3CCN(C(=O)COc4ccc(CN5CCOCC5)cc4)CC3)c(F)c2)C(=O)O1` [Example 7, N-({(5S)-3-[3-Fluoro-4-(4-{[4-(morpholin-4-ylmethyl)phenoxy]acetyl}piperazin-1-yl)phenyl]-2-oxo-1,3-oxazolidin-5-yl}methyl)propanethioamide], the melting point is reported as 159 to 160 °C.
For `CC(=S)NC[C@H]1CN(c2ccc(N3CCN(C(=O)CCC(=O)c4ccc(Cl)cc4)CC3)c(F)c2)C(=O)O1` [Example 50, N-{[(5S)-3-(4-{4-[4-(4-chlorophenyl)-4-oxobutanoyl]-1-piperazinyl}-3-fluorophenyl)-2-oxo-1,3-oxazolidin-5-yl]methyl}ethanethioamide], the melting point was 215 to 216 °C (dec.).
For `CC(=O)NC[C@H]1CN(c2ccc(N3CCN(C(=O)CCCc4ccc(NC(=O)CN)cc4)CC3)c(F)c2)C(=O)O1` [Example 60, N-(4-{4-[4-(4-{(5S)-5-[(Acetylamino)methyl]-2-oxo-1,3-oxazolidin-3-yl}-2-fluorophenyl)-1-piperazinyl]-4-oxobutyl}phenyl)-2-aminoacetamide], the melting point was 199 to 200 °C (dec.).
With `CCC(=S)NC[C@H]1CN(c2ccc(N3CCN(C(=O)COc4ccc(CN(C)C)cc4)CC3)c(F)c2)C(=O)O1` [Example 4, N-[((5S)-3{4-[4-({4-[(Dimethylamino)methyl]phenoxy}acetyl)piperazin-1-yl]-3-fluorophenyl}-2-oxo-1,3-oxazolidin-5-yl)methyl]propanethioamide] the melting point was 163 to 164 °C.
For `CN(C)Cc1ccc(C(=O)CCC(=O)N2CCN(c3ccc(N4C[C@H](CNC(=S)C5CC5)OC4=O)cc3F)CC2)cc1` [Example 14, N-[((5S)-3-{4-[4-(4-{4-[(Dimethylamino)methyl]phenyl}-4-oxobutanoyl)-1-piperazinyl]-3-fluorophenyl}-2-oxo-1,3-oxazolidin-5-yl)methyl]cyclopropanecarbothioamide], the melting point was 174 to 175 °C.
Work on `CCC(=S)NC[C@H]1CN(c2ccc(N3CCN(C(=O)CCC(=O)c4ccc(CN5CCOCC5)cc4)CC3)c(F)c2)C(=O)O1` [Example 16, N-({(5S)-3-[3-Fluoro-4-(4-{4-[4-(4-morpholinylmethyl)phenyl]-4-oxobutanoyl}-1-piperazinyl)phenyl]-2-oxo-1,3-oxazolidin-5-yl}methyl)propanethioamide] yielded a melting point of 160 °C.
`CC(=O)NC[C@H]1CN(c2ccc(N3CCN(C(=O)CCC(=O)c4ccc(Br)cc4)CC3)c(F)c2)C(=O)O1` [Example 44, N-{[(5S)-3-(4-{4-[4-(4-Bromophenyl)-4-oxobutanoyl]-1-piperazinyl}-3-fluorophenyl)-2-oxo-1,3-oxazolidin-5-yl]methyl}acetamide] gave a melting point of 197 to 198 °C.
Compound `CC(=O)NC[C@H]1CN(c2ccc(N3CCN(C(=O)CCC(=O)c4ccc(CN(C)C)cc4)CC3)c(F)c2)C(=O)O1` [Example 15, N-[((5S)-3-{4-[4-(4-{4-[(Dimethylamino)methyl]phenyl}-4-oxobutanoyl)-1-piperazinyl]-3-fluorophenyl}-2-oxo-1,3-oxazolidin-5-yl)methyl]acetamide] has a melting point of 190 to 192 °C.
In the case of `CC(=O)NC[C@H]1CN(c2ccc(N3CCN(C(=O)CCCc4ccc(O)cc4)CC3)c(F)c2)C(=O)O1` [Example 42, N-{[(5S)-3-(3-Fluoro-4-{4-[4-(4-hydroxyphenyl)butanoyl]piperazin-1-yl}phenyl)-2-oxo-1,3-oxazolidin-5-yl]methyl}acetamide], the melting point is reported as 119 to 120 °C (dec.).
Work on `CCC(=S)NC[C@H]1CN(c2ccc(N3CCN(C(=O)COc4ccc(CN(CC)CC)cc4)CC3)c(F)c2)C(=O)O1` [Example 1, N-[((5S)-3-{4-[4-({4-[(Diethylamino)methyl]phenoxy}acetyl)piperazin-1-yl]-3-fluorophenyl}-2-oxo-1,3-oxazolidin-5-yl)methyl]propanethioamide] yielded a melting point of 98 °C.
